From PubChem BioAssay (NCI)
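How tested: cells in 96-well plates exposed to compound for 48 hours at five concentrations. TGI is the concentration that stops growth completely.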

How the values were obtained:
Assay in all cases: NCI-60 cell line screen, 48 h
KM12 colon = test system: KM12 colon
786-0 renal = test system: 786-0 renal
SK-OV-3 ovarian = test system: SK-OV-3 ovarian
M14 melanoma = test system: M14 melanoma
SW-620 colon = test system: SW-620 colon
SK-MEL-2 melanoma = test system: SK-MEL-2 melanoma
SK-MEL-5 melanoma = test system: SK-MEL-5 melanoma
NCI-H226 lung = test system: NCI-H226 lung
MALME-3M melanoma = test system: MALME-3M melanoma
HCT-116 colon = test system: HCT-116 colon
HOP-92 NSCLC = test system: HOP-92 NSCLC
OVCAR-5 ovarian = test system: OVCAR-5 ovarian
A549 NSCLC = test system: A549 NSCLC
NCI-H522 lung = test system: NCI-H522 lung
UACC-257 melanoma = test system: UACC-257 melanoma
K-562 leukemia = test system: K-562 leukemia
OVCAR-8 ovarian = test system: OVCAR-8 ovarian
KM20L2 colon = test system: KM20L2 colon
HT29 colon = test system: HT29 colon
ACHN renal = test system: ACHN renal
CAKI-1 renal = test system: CAKI-1 renal
NCI-H460 lung = test system: NCI-H460 lung
UO-31 renal = test system: UO-31 renal
DLD-1 colon = test system: DLD-1 colon
LXFL 529 NSCLC = test system: LXFL 529 NSCLC
UACC-62 melanoma = test system: UACC-62 melanoma
SN12C renal = test system: SN12C renal
IGROV1 ovarian = test system: IGROV1 ovarian
OVCAR-3 ovarian = test system: OVCAR-3 ovarian
A498 renal = test system: A498 renal
OVCAR-4 ovarian = test system: OVCAR-4 ovarian
MOLT-4 leukemia = test system: MOLT-4 leukemia
SF-295 CNS = test system: SF-295 CNS
HCC-2998 colon = test system: HCC-2998 colon
SNB-75 CNS = test system: SNB-75 CNS
SNB-19 CNS = test system: SNB-19 CNS
SF-539 CNS = test system: SF-539 CNS
HCT-15 colon = test system: HCT-15 colon
HL-60(TB) leukemia = test system: HL-60(TB) leukemia
DMS 114 small cell lung = test system: DMS 114 small cell lung
SF-268 CNS = test system: SF-268 CNS
HOP-62 NSCLC = test system: HOP-62 NSCLC
COLO 205 colon = test system: COLO 205 colon
LOX IMVI melanoma = test system: LOX IMVI melanoma
CCRF-CEM leukemia = test system: CCRF-CEM leukemia
XF 498 CNS = test system: XF 498 CNS
M19-MEL melanoma = test system: M19-MEL melanoma
RXF 393 renal = test system: RXF 393 renal
BT-549 breast = test system: BT-549 breast
TK-10 renal = test system: TK-10 renal
MCF7 breast = test system: MCF7 breast
U251 CNS = test system: U251 CNS
MDA-MB-231 breast = test system: MDA-MB-231 breast
NCI/ADR-RES ovarian = test system: NCI/ADR-RES ovarian
DU-145 prostate = test system: DU-145 prostate
SR leukemia = test system: SR leukemia
MDA-MB-435 = test system: MDA-MB-435
DMS 273 small cell lung = test system: DMS 273 small cell lung
PC-3 prostate = test system: PC-3 prostate
MDA-N = test system: MDA-N
EKVX NSCLC = test system: EKVX NSCLC
RPMI-8226 leukemia = test system: RPMI-8226 leukemia
NCI-H23 lung = test system: NCI-H23 lung
SK-MEL-28 melanoma = test system: SK-MEL-28 melanoma

Measured: TGI

CC12CCC(=O)N1[C@@H](c1ccccc1)[C@@H](c1ccccc1)O2 (stereo not given in full)
> 100 µM: KM12 colon | 786-0 renal | SK-OV-3 ovarian | M14 melanoma | SW-620 colon | SK-MEL-2 melanoma | SK-MEL-5 melanoma | NCI-H226 lung | MALME-3M melanoma | HCT-116 colon | HOP-92 NSCLC | OVCAR-5 ovarian | A549 NSCLC | NCI-H522 lung | UACC-257 melanoma | K-562 leukemia | OVCAR-8 ovarian | KM20L2 colon | HT29 colon | ACHN renal | CAKI-1 renal | NCI-H460 lung | UO-31 renal | DLD-1 colon | LXFL 529 NSCLC | UACC-62 melanoma | SN12C renal | IGROV1 ovarian | OVCAR-3 ovarian | A498 renal | OVCAR-4 ovarian | MOLT-4 leukemia | SF-295 CNS | HCC-2998 colon | SNB-75 CNS | SNB-19 CNS | SF-539 CNS | HCT-15 colon | HL-60(TB) leukemia | DMS 114 small cell lung | SF-268 CNS | HOP-62 NSCLC | COLO 205 colon | LOX IMVI melanoma | CCRF-CEM leukemia | XF 498 CNS | M19-MEL melanoma

O=C(N[C@H](CO)[C@H](O)c1ccc([N+](=O)[O-])cc1)C(Cl)Cl
> 100 µM: RXF 393 renal | KM12 colon | 786-0 renal | BT-549 breast | TK-10 renal | MCF7 breast | U251 CNS | SK-OV-3 ovarian | M14 melanoma | SW-620 colon | SK-MEL-2 melanoma | SK-MEL-5 melanoma | NCI-H226 lung | MALME-3M melanoma | HCT-116 colon | MDA-MB-231 breast | NCI/ADR-RES ovarian | HOP-92 NSCLC | OVCAR-5 ovarian | A549 NSCLC | NCI-H522 lung | UACC-257 melanoma | K-562 leukemia | OVCAR-8 ovarian | DU-145 prostate | KM20L2 colon | HT29 colon | ACHN renal | CAKI-1 renal | NCI-H460 lung | SR leukemia | UO-31 renal | DLD-1 colon | LXFL 529 NSCLC | UACC-62 melanoma | MDA-MB-435 | SN12C renal | IGROV1 ovarian | OVCAR-3 ovarian | A498 renal | DMS 273 small cell lung | OVCAR-4 ovarian | MOLT-4 leukemia | SF-295 CNS | HCC-2998 colon | SNB-75 CNS | PC-3 prostate | SNB-19 CNS | SF-539 CNS | MDA-N | HCT-15 colon | EKVX NSCLC | HL-60(TB) leukemia | DMS 114 small cell lung | SF-268 CNS | HOP-62 NSCLC | RPMI-8226 leukemia | NCI-H23 lung | COLO 205 colon | SK-MEL-28 melanoma | LOX IMVI melanoma | CCRF-CEM leukemia | M19-MEL melanoma
